# Test results from patent US20250179059A1 (The Regents of the University of California, priority 2021, published 2025).
# Tests used:
# [1] = test system: human SKM-1 acute myeloid leukemia cells; assay: SKM-1 antiproliferation cell-based assay (ATPlite); conditions: Homo sapiens, SKM-1, 96 h, SKM-1 antiproliferation assay, 4 days, Table C2
# Procedure, shortened: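 Log-phase cells in RPMI 1640/15% FBS were seeded at 34722 cells/mL and exposed for 4 days to nine-concentration DMSO serial dilutions in triplicate. Viability was read as ATP luminescence (ATPlite 1step), and IC50 values came from variable-slope non-linear regression.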
# [2] = biological target: T1, human BRD4 bromodomain II (Homo sapiens, UniProt O60885); assay: Bromodomain binding assay (AlphaScreen), BRD4 BDII; conditions: AlphaScreen assay, Table C2; read-out: BRD4 BDII IC50
# T1 construct: human BRD4 bromodomain II [based on Genbank NM_058243, residues 349-460]; host or cells: E. coli
# Procedure, shortened: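 Compounds (10-point, 3-fold series) were preincubated 30 min at room temperature with E. coli-expressed N-terminal His6-tagged BRD4 BDII (residues 349-460) or BDI (residues 44-170) in 50 mM HEPES pH 7.5, 100 mM NaCl, 0.05% CHAPS, 0.1% BSA, 1% DMSO. Displacement of biotinylated tetra-acetylated H4 1-21 peptide was read by AlphaScreen; IC50 from curve fitting.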
GI50 [1],IC50 [2],SMILES
0.3 to 30 nM,0.01 to 1 nM,"Cn1ccn(-c2ccc(-c3cc(F)cc(-c4ccnc(N5CC(C)(C)C(C)(O)C5)c4)c3O)cc2Cl)c1=O (stereo not drawn) [Example 783, 1-(3-chloro-5′-fluoro-2′-hydroxy-3′-(2-(3-hydroxy-3,4,4-trimethylpyrrolidin-1-yl)pyridin-4-yl)-[1,1′-biphenyl]-4-yl)-3-methyl-1H-imidazol-2(3H)-one]"
30 to 300 nM,1 to 10 nM,"Cn1ccn(-c2ccc(-c3cc(F)cc(-c4ccnc(N5CCC(O)(C(F)(F)F)C5)c4)c3O)cc2Cl)c1=O (stereo not drawn) [Example 784, 1-(3-chloro-5′-fluoro-2′-hydroxy-3′-(2-(3-hydroxy-3-(trifluoromethyl)pyrrolidin-1-yl)pyridin-4-yl)-[1,1′-biphenyl]-4-yl)-3-methyl-1H-imidazol-2(3H)-one]"
30 to 300 nM,1 to 10 nM,"Cn1ccn(-c2ccc(-c3cc(F)cc(-c4ccnc(N5CC6CCC(C5)C6(C)O)c4)c3O)cc2Cl)c1=O (stereo not drawn) [Example 785, 1-(3-chloro-5′-fluoro-2′-hydroxy-3′-(2-(8-hydroxy-8-methyl-3-azabicyclo[3.2.1]octan-3-yl)pyridin-4-yl)-[1,1′-biphenyl]-4-yl)-3-methyl-1H-imidazol-2(3H)-one]"
30 to 300 nM,1 to 10 nM,"Cn1ccn(-c2ccc(-c3cc(F)cc(-c4ccnc(N5C[C@H](O)[C@@H](F)C5)c4)c3O)cc2Cl)c1=O [Example 786, 1-(3-chloro-5′-fluoro-3′-(2-((3S,4S)-3-fluoro-4-hydroxypyrrolidin-1-yl)pyridin-4-yl)-2′-hydroxy-[1,1′-biphenyl]-4-yl)-3-methyl-1H-imidazol-2(3H)-one]"
0.3 to 30 nM,0.01 to 1 nM,"CC(C)N1CCN(c2cc(-c3cc(F)cc(-c4ccc(-n5ccn(C)c5=O)c(Cl)c4)c3O)cnc2Cl)CC1 [Example 787, 1-(3-chloro-3′-(6-chloro-5-(4-isopropylpiperazin-1-yl)pyridin-3-yl)-5′-fluoro-2′-hydroxy-[1,1′-biphenyl]-4-yl)-3-methyl-1H-imidazol-2(3H)-one]"
300 to 3000 nM,10 to 100 nM,"CN(C)C1(c2cccc(-c3cc(F)cc(-c4ccc(-n5ccn(C)c5=O)c(Cl)c4)c3O)c2)CC1 [Example 788, 1-(3-chloro-3″-(1-(dimethylamino)cyclopropyl)-5′-fluoro-2′-hydroxy-[1,1′:3′,1″-terphenyl]-4-yl)-3-methyl-1H-imidazol-2(3H)-one]"
0.3 to 30 nM,1 to 10 nM,"Cn1ccn(-c2ccc(-c3cc(F)cc(-c4cnc(Cl)c(N5CCN(C(C)(C)C)CC5)c4)c3O)cc2Cl)c1=O [Example 789, 1-(3′-(5-(4-(tert-butyl)piperazin-1-yl)-6-chloropyridin-3-yl)-3-chloro-5′-fluoro-2′-hydroxy-[1,1′-biphenyl]-4-yl)-3-methyl-1H-imidazol-2(3H)-one]"
0.3 to 30 nM,0.01 to 1 nM,"CC(=O)NC1(C)CCN(c2cc(-c3cc(F)cc(-c4ccc(-n5ccn(C)c5=O)c(Cl)c4)c3O)ccn2)CC1 [Example 790, N-(1-(4-(3′-chloro-5-fluoro-2-hydroxy-4′-(3-methyl-2-oxo-2,3-dihydro-1H-imidazol-1-yl)-[1,1′-biphenyl]-3-yl)pyridin-2-yl)-4-methylpiperidin-4-yl)acetamide]"
0.3 to 30 nM,0.01 to 1 nM,"Cc1ncc(-c2cc(F)cc(-c3ccc(-n4ccn(C)c4=O)c(Cl)c3)c2O)cc1N1CCN(C(C)(C)C)CC1 [Example 791, 1-(3′-(5-(4-(tert-butyl)piperazin-1-yl)-6-methylpyridin-3-yl)-3-chloro-5′-fluoro-2′-hydroxy-[1,1′-biphenyl]-4-yl)-3-methyl-1,3-dihydro-2H-imidazol-2-one]"
300 to 3000 nM,> 100 nM,"Cn1ccn(-c2ccc(-c3cc(F)cc(-c4ccnc(N5CCC(C)(NS(C)(=O)=O)C5)c4)c3O)cc2Cl)c1=O (stereo not drawn) [Example 792, N-(1-(4-(3′-chloro-5-fluoro-2-hydroxy-4′-(3-methyl-2-oxo-2,3-dihydro-1H-imidazol-1-yl)-[1,1′-biphenyl]-3-yl)pyridin-2-yl)-3-methylpyrrolidin-3-yl)methanesulfonamide]"

# The remaining lines, values behind:
SMILES,GI50 [1],IC50 [2]
"Cn1ccn(-c2ccc(-c3cc(F)cc(-c4ccnc(N5CCC(C)(C(=O)O)C5)c4)c3O)cc2Cl)c1=O (stereo not drawn) [Example 769, 1-(4-(3′-chloro-5-fluoro-2-hydroxy-4′-(3-methyl-2-oxo-2,3-dihydro-1H-imidazol-1-yl)-[1,1′-biphenyl]-3-yl)pyridin-2-yl)-3-methylpyrrolidine-3-carboxylic acid]",300 to 3000 nM,1 to 10 nM
"Cn1ccn(-c2ccc(-c3cc(F)cc(-c4ccnc(N5CC6CC6(O)C5)c4)c3O)cc2Cl)c1=O (stereo not drawn) [Example 770, 1-(3-chloro-5′-fluoro-2′-hydroxy-3′-(2-(1-hydroxy-3-azabicylco[3.1.0]hexan-3-yl)pyridin-4-yl)-[1,1′-biphenyl]-4-yl)-3-methyl-1H-imidazol-2(3H)-one]",30 to 300 nM,1 to 10 nM
"Cn1ccn(-c2ccc(-c3cc(F)cc(-c4cccc(C#CC(C)(C)N)c4)c3O)cc2Cl)c1=O [Example 771, 1-(3″-(3-amino-3-methylbut-1-yn-1-yl)-3-chloro-5′-fluoro-2′-hydroxy-[1,1′:3′,1″-terphenyl]-4-yl)-3-methyl-1H-imidazol-2(3H)-one]",30 to 300 nM,1 to 10 nM
"Cn1ccn(-c2ccc(-c3cc(F)cc(-c4cccc(C#CC(C)(C)O)c4)c3O)cc2Cl)c1=O [Example 772, 1-(3-chloro-5′-fluoro-2′-hydroxy-3″-(3-hydroxy-3-methylbut-1-yn-1-yl)-[1,1′:3′,1″-terphenyl]-4-yl)-3-methyl-1H-imidazol-2(3H)-one]",300 to 3000 nM,10 to 100 nM
"Cn1ccn(-c2ccc(-c3cc(F)cc(-c4ccnc(N5CCC(C)(C(N)=O)C5)c4)c3O)cc2Cl)c1=O (stereo not drawn) [Example 773, 1-(4-(3′-chloro-5-fluoro-2-hydroxy-4′-(3-methyl-2-oxo-2,3-dihydro-1H-imidazol-1-yl)-[1,1′-biphenyl]-3-yl)pyridin-2-yl)-3-methylpyrrolidine-3-carboxamide]",30 to 300 nM,1 to 10 nM
"CC(=O)N[C@@]1(C)CCN(c2cc(-c3cc(F)cc(-c4ccc(-n5ccn(C)c5=O)c(Cl)c4)c3O)cc(=O)n2C)C1 [Example 774, (S)-N-(1-(4-(3′-chloro-5-fluoro-2-hydroxy-4′-(3-methyl-2-oxo-2,3-dihydro-1H-imidazol-1-yl)-[1,1′-biphenyl]-3-yl)-1-methyl-6-oxo-1,6-dihydropyridin-2-yl)-3-methylpyrrolidin-3-yl)acetamide]",30 to 300 nM,1 to 10 nM
"Cn1ccn(-c2ccc(-c3cc(F)cc(-c4ccc(F)c(N5CC[C@@](C)(O)C5)c4)c3O)cc2Cl)c1=O [Example 775, (R)-1-(3-chloro-4″,5′-difluoro-2′-hydroxy-3″-(3-hydroxy-3-methylpyrrolidin-1-yl)-[1,1′:3′,1″-terphenyl]-4-yl)-3-methyl-1H-imidazol-2(3H)-one]",30 to 300 nM,1 to 10 nM
"Cn1ccn(-c2ccc(-c3cc(F)cc(-c4ccnc(N5CCC(C)(NC(=O)OC(C)(C)C)C5)c4)c3O)cc2Cl)c1=O (stereo not drawn) [Example 776, tert-butyl (1-(4-(3′-chloro-5-fluoro-2-hydroxy-4′-(3-methyl-2-oxo-2,3-dihydro-1H-imidazol-1-yl)-[1,1′-biphenyl]-3-yl)pyridin-2-yl)-3-methylpyrrolidin-3-yl)carbamate]",30 to 300 nM,10 to 100 nM
"Cn1ccn(-c2ccc(-c3cc(F)cc(-c4cc(N5CC[C@@](C)(O)C5)n(C)c(=O)c4)c3O)cc2Cl)c1=O [Example 777, (R)-4-(3′-chloro-5-fluoro-2-hydroxy-4′-(3-methyl-2-oxo-2,3-dihydro-1H-imidazol-1-yl)-[1,1′-biphenyl]-3-yl)-6-(3-hydroxy-3-methylpyrrolidin-1-yl)-1-methylpyridin-2(1H)-one]",0.3 to 30 nM,0.01 to 1 nM
Cn1ccn(-c2ccc(-c3cc(F)cc(-c4ccnc(N5CCC(C)(N)CC5)c4)c3O)cc2Cl)c1=O [Example 778],0.3 to 30 nM,1 to 10 nM
"Cn1ccn(-c2ccc(-c3cc(F)cc(-c4ccnc(N5CC(C)(O)C6(CC6)C5)c4)c3O)cc2Cl)c1=O (stereo not drawn) [Example 779, 1-(3-chloro-5′-fluoro-2′-hydroxy-3′-(2-(7-hydroxy-7-methyl-5-azaspiro[2.4]heptan-5-yl)pyridin-4-yl)-[1,1′-biphenyl]-4-yl)-3-methyl-1H-imidazol-2(3H)-one]",0.3 to 30 nM,1 to 10 nM
"CC(=O)NC1(C)C2CCC1CN(c1cc(-c3cc(F)cc(-c4ccc(-n5ccn(C)c5=O)c(Cl)c4)c3O)ccn1)C2 (stereo not drawn) [Example 780, N-(3-(4-(3′-chloro-5-fluoro-2-hydroxy-4′-(3-methyl-2-oxo-2,3-dihydro-1H-imidazol-1-yl)-[1,1′-biphenyl]-3-yl)pyridin-2-yl)-8-methyl-3-azabicyclo[3.2.1]octan-8-yl)acetamide]",30 to 300 nM,1 to 10 nM
"Cn1ccn(-c2ccc(-c3cc(F)cc(-c4ccnc(N5C[C@@H](O)[C@H](F)C5)c4)c3O)cc2Cl)c1=O [Example 781, 1-(3-chloro-5′-fluoro-3′-(2-((3R,4R)-3-fluoro-4-hydroxypyrrolidin-1-yl)pyridin-4-yl)-2′-hydroxy-[1,1′-biphenyl]-4-yl)-3-methyl-1H-imidazol-2(3H)-one]",30 to 300 nM,1 to 10 nM
"CC(=O)NC1(C)CCN(c2cc(-c3cc(F)cc(-c4ccc(-n5ccn(C)c5=O)c(Cl)c4)c3O)ccn2)C1 (stereo not drawn) [Example 782, N-(1-(4-(3′-chloro-5-fluoro-2-hydroxy-4′-(3-methyl-2-oxo-2,3-dihydro-1H-imidazol-1-yl)-[1,1′-biphenyl]-3-yl)pyridin-2-yl)-3-methylpyrrolidin-3-yl)acetamide]",30 to 300 nM,0.01 to 1 nM
